Results reported in patent publication US20120132797A1, “MEANS AND METHODS FOR DIAGNOSING THYROID DISORDERS” (BASF SE, priority 2009, published 2012).

Test system: Wistar (Crl:WI(Han)) rats
Assay: Mass spectrometry-based plasma metabolite profiling of rats treated with known inducers of thyroid function impairment
Format: in vivo, rat
Conditions: male rats, ratio of group medians vs controls, Table 4
How it was run: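 Rats aged 10-11 weeks, 5/sex/dose vs 10/sex controls, dosed at low and high levels; retro-orbital plasma taken under isoflurane on days 7, 14 and 28 after 16-20 h fast. Polar and non-polar fractions profiled by GC-MS (derivatised) and LC-MS/MS (MRM plus full scan), normalised to pool samples; Welch t-test by sex and day gives p-values and median ratios.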

CCC1(c2ccccc2)C(=O)NC(=O)NC1=O [Phenobarbital sodium]
Behenic acid (C22:0) (mh7 (study day 7)): 1.03 | Cholesterol (mh7 (study day 7)): 1.16 | Citrate (mh7 (study day 7)): 0.89 | Cytosine (mh7 (study day 7)): 1.06 | Galactose, lipid fraction (mh7 (study day 7)): 1.12 | Glycerol phosphate (mh7 (study day 7)): 1.05 | Glycine (mh7 (study day 7)): 0.95 | Lignoceric acid (C24:0) (mh7 (study day 7)): 1.21 | Mannose (mh7 (study day 7)): 1.08 | Nervonic acid C24:(cis[15]1) (mh7 (study day 7)): 1.27 | Phospha-tidylcholine (C18:0, 18:2) (mh7 (study day 7)): 1.13 | Sphingomyelin (d18:1, C16:0) (mh7 (study day 7)): 1.30 | Stearic acid (C18:0) (mh7 (study day 7)): 0.99 | Threonic acid (mh7 (study day 7)): 1.86 | dihomo-gamma-Linolenic acis (C20:cis[8,11,14]3) (mh7 (study day 7)): 1.06 | erythro-Sphingosine (mh7 (study day 7)): 1.39 | myo-Inositol-2-phosphate (mh7 (study day 7)): 1.26 | threo-Sphingosine (mh7 (study day 7)): 1.39 | Behenic acid (C22:0) (mh14 (study day 14)): 1.11 | Cholesterol (mh14 (study day 14)): 1.09 | Citrate (mh14 (study day 14)): 0.93 | Cytosine (mh14 (study day 14)): 1.07 | Galactose, lipid fraction (mh14 (study day 14)): 1.18 | Glycerol phosphate (mh14 (study day 14)): 1.04 | Glycine (mh14 (study day 14)): 1.18 | Lignoceric acid (C24:0) (mh14 (study day 14)): 1.18 | Mannose (mh14 (study day 14)): 1.05 | Nervonic acid C24:(cis[15]1) (mh14 (study day 14)): 1.77 | Phospha-tidylcholine (C18:0, 18:2) (mh14 (study day 14)): 1.14 | Sphingomyelin (d18:1, C16:0) (mh14 (study day 14)): 1.55 | Stearic acid (C18:0) (mh14 (study day 14)): 1.19 | Threonic acid (mh14 (study day 14)): 1.95 | dihomo-gamma-Linolenic acis (C20:cis[8,11,14]3) (mh14 (study day 14)): 1.03 | erythro-Sphingosine (mh14 (study day 14)): 1.56 | myo-Inositol-2-phosphate (mh14 (study day 14)): 1.16 | threo-Sphingosine (mh14 (study day 14)): 1.61 | Behenic acid (C22:0) (mh28 (study day 28)): 1.21 | Cholesterol (mh28 (study day 28)): 1.18 | Citrate (mh28 (study day 28)): 0.96 | Cytosine (mh28 (study day 28)): 0.98 | Galactose, lipid fraction (mh28 (study day 28)): 1.06 | Glycerol phosphate (mh28 (study day 28)): 1.05 | Glycine (mh28 (study day 28)): 1.12 | Lignoceric acid (C24:0) (mh28 (study day 28)): 1.25 | Mannose (mh28 (study day 28)): 1.09 | Nervonic acid C24:(cis[15]1) (mh28 (study day 28)): 1.65 | Phospha-tidylcholine (C18:0, 18:2) (mh28 (study day 28)): 1.05 | Sphingomyelin (d18:1, C16:0) (mh28 (study day 28)): 1.44 | Stearic acid (C18:0) (mh28 (study day 28)): 1.09 | Threonic acid (mh28 (study day 28)): 1.88 | dihomo-gamma-Linolenic acis (C20:cis[8,11,14]3) (mh28 (study day 28)): 0.96 | erythro-Sphingosine (mh28 (study day 28)): 1.65 | myo-Inositol-2-phosphate (mh28 (study day 28)): 1.15 | threo-Sphingosine (mh28 (study day 28)): 1.50
